# Measurements from PubChem BioAssay AID732 (Emory University Molecular Libraries Screening Center, 2007).
# Several values for one entry are separate records, joined by “and”; a condition that tells them apart may be missing. Identical values can stand only once. Activity calls are given as the source filed them. The rule behind the calls is not given here.
# System: in vivo angiogenesis, blood vessel count
# Assay: reduction of blood vessel formation in vivo – HTS, in vivo study (AID 732);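 note: zebrafish embryos dosed at one day post fertilization; 0% = reference inhibitor and 100% = plate mean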
# Conditions: stronger effect = lower value;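 tested at 30 µM in the well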
row,SMILES,vessel count % control
1,O=C(O)Cc1c[nH]c2ccc(O)cc12,92.5% (inactive)
2,Cc1cccc2c(C3=Nc4ccccc4C3=O)c(O)[nH]c12,26.6%
3,COc1ccc(NC(=O)c2ccc(-c3ccc(-c4noc(C)n4)cc3C)cc2)cc1N1CCN(C)CC1,93% (inactive)
4,CNC(=O)[C@H]1O[C@@H](n2cnc3c(NCc4ccc(N)cc4)ncnc32)C(O)[C@H]1O (stereo partly drawn),134% (inactive)
5,COc1cc2c(CCNC(C)=O)c[nH]c2cc1O,105% (inactive)
6,C[C@@H]1O[C@@H](O[C@H]2C[C@@H](O)[C@]3(CO)[C@H]4[C@H](O)C[C@]5(C)[C@@H](C6=CC(=O)OC6)CC[C@]5(O)[C@@H]4CC[C@]3(O)C2)[C@H](O)[C@H](O)[C@H]1O,109% (inactive)
7,COc1ccccc1CNCCCCCCNCCCCCCCCNCCCCCCNCc1ccccc1OC,113% (inactive)
8,CN1Cc2c(N)cccc2C(c2ccccc2)C1 (stereo not drawn),112% (inactive)
9,NC/C=C/C(=O)O,97.5% (inactive)
10,NCCS(=O)O,107% (inactive)
11,O=C(CCCN1CCC2(CC1)C(=O)NCN2c1ccccc1)c1ccc(F)cc1,77.9% (inactive)
12,C[C@H]1O[C@@H](n2cc(F)c(=O)[nH]c2=O)[C@H](O)[C@@H]1O,108% (inactive)
13,O=C(O)[C@H]1NCCC[C@H]1C(=O)O,121% (inactive)
14,CC1(C)CCC=[N+]1[O-],85.7% (inactive)
15,CN(C)c1nc(N)c(C(=O)N=C(N)N)nc1Cl,106% (inactive)
16,COc1ccc(C(=O)N2CCCC2=O)cc1,116% (inactive)
17,CN(C)CCCO[C@@H]1[C@H]2OC(C)(C)O[C@H]2O[C@@H]1C(O)CO (stereo partly drawn),88% (inactive)
18,CNc1ccc2oc(C[C@H]3O[C@@]4(CC[C@H]3C)O[C@H]([C@H](C)C(=O)c3ccc[nH]3)[C@H](C)C[C@H]4C)nc2c1C(=O)O,0% (inactive)
19,C[C@H](CS)C(=O)N1CCC[C@H]1C(=O)O,100% (inactive)
20,NCC1(CC(=O)O)CCCCC1,98.7% (inactive)
21,NC[C@@H]1O[C@H](C23CC4CC(CC(C4)C2)C3)Cc2c1ccc(O)c2O,110% (inactive)
22,OC(CCN1CCCCC1)(c1ccccc1)C1CCCCC1 (stereo not drawn),98.5% (inactive)
23,Nc1c(S(=O)(=O)O)cc(Nc2ccc(Nc3nc(Cl)nc(Nc4ccc(S(=O)(=O)O)cc4)n3)c(S(=O)(=O)O)c2)c2c1C(=O)c1ccccc1C2=O,106% (inactive)
24,CC(C)(C)NCC(O)COc1nsnc1N1CCOCC1 (stereo not drawn),101% (inactive)
25,Cc1o[nH]c(=O)c1CC(N)C(=O)O (stereo not drawn),104% (inactive)

row,SMILES,vessel count % control
1,O=c1ccn([C@@H]2O[C@H](COP(=O)(O)OP(=O)(O)O)[C@@H](O)[C@H]2O)c(=O)[nH]1,140% (inactive)
2,Nc1ccncc1,118% (inactive)
3,C[N+]1(C)C2CCC1CC(OC(=O)C(CO)c1ccccc1)C2 (stereo not drawn),77.4% (inactive) and 108% (inactive)
4,NCCNC(=O)c1ccc(Cl)cc1,106% (inactive)
5,C=CCN1CCc2c(cc(O)c(O)c2Cl)C(c2ccccc2)C1 (stereo not drawn),121% (inactive)
6,CC(C)NCC(O)c1ccc(NS(C)(=O)=O)cc1 (stereo not drawn),95.6% (inactive)
7,C[C@H]1CC2C3CCC4=CC(=O)C=C[C@]4(C)[C@@]3(Cl)[C@@H](O)C[C@]2(C)[C@@]1(O)C(=O)CO (stereo partly drawn),120% (inactive)
8,CC(C(O)c1ccc(O)cc1)N1CCC(Cc2ccccc2)CC1 (stereo not drawn),0% (inactive)
9,CC(=O)NBr,130% (inactive)
10,O=c1cc(-c2ccccc2)[nH]c2nc(Cl)ccc12,0% (inactive)
11,CC(=O)Oc1cc(C(C)C)c(OCCN(C)C)cc1C,109% (inactive)
12,CCCCCC(O)c1cccc(OCc2ccc3ccccc3n2)c1 (stereo not drawn),83.4% (inactive)
13,N[C@@H](CCl)C(=O)O,101% (inactive)
14,NCCc1c[nH]c2ccccc12,118% (inactive)
15,CN(CCOc1ccc(C[C@H](Nc2ccccc2C(=O)c2ccccc2)C(=O)O)cc1)c1ccccn1,100% (inactive)
16,CN1CCc2cccc(Cl)c2CC1,93.2% (inactive)
17,Nc1nc(SCc2ccc([N+](=O)[O-])cc2)c2ncn([C@@H]3O[C@H](CO)[C@H](O)C3O)c2n1 (stereo partly drawn),112% (inactive)
18,C=CCN1C[C@@H](C)N([C@H](c2ccc(C(=O)N(CC)CC)cc2)c2cccc(OC)c2)C[C@@H]1C,85.2% (inactive)
19,N#C/C(=C\c1ccc(O)c(O)c1)C(=O)c1ccc(O)c(O)c1,124% (inactive)
20,O=C(O)/C=C/c1ccc(O)c(O)c1,108% (inactive)
21,CN(C)C(=O)C(CCN1CCC(O)(c2ccc(Cl)cc2)CC1)(c1ccccc1)c1ccccc1,126% (inactive)
22,c1ccc(CCCN2CCN(CCOC(c3ccccc3)c3ccccc3)CC2)cc1,101% (inactive)
23,C[N+]1(C)C2CCC1CC(OC(=O)c1c[nH]c3ccccc13)C2 (stereo not drawn),99.8% (inactive)
24,O=C(O)CCC(NC(=O)c1ccccc1C(=O)O)C(=O)O (stereo not drawn),103% (inactive)
25,NCCCS(=O)(=O)O,144% (inactive)

row,SMILES,vessel count % control
1,COc1cc2c(cc1C(F)(F)F)N(C(=O)Nc1cc(F)cc(-c3cccnc3)c1)CC2,95.3% (inactive)
2,Cc1c(C(=O)c2cccc3ccccc23)c2cccc3c2n1[C@H](CN1CCOCC1)CO3,0% (inactive)
3,O=C(O)[C@@H]1C[C@@H](C(=O)O)N1,99.6% (inactive)
4,S=C(Nc1ccccc1)Nc1nccs1,61.2% (inactive)
5,Clc1cnc(Oc2ccc(Oc3ncc(Cl)cc3Cl)cc2)c(Cl)c1,96.7% (inactive)
6,C[N+](C)(C)CC=O,104% (inactive)
7,COc1ccc2[nH]c3c(c2c1)CCNC3,137% (inactive)
8,CC(C)C(=O)c1c(C(C)C)nn2ccccc12,94.7% (inactive)
9,CN1C2CCC1CC(OC(=O)C(CO)c1ccccc1)C2 (stereo not drawn),120% (inactive) and 116% (inactive)
10,CC/C(=C(\c1ccccc1)c1ccc(OCCN(C)C)cc1)c1ccccc1,64.7% (inactive)
11,CC(C)(C)c1ccc(S(=O)(=O)/C=C/C#N)cc1,0% (inactive)
12,CN1CCC(c2c[nH]c3ccc(O)cc23)CC1,95.9% (inactive)
13,CCN(CC)C(=S)SSC(=S)N(CC)CC,0% (inactive)
14,CN(C)CCOC(c1ccccc1)c1ccccc1,86.5% (inactive)
15,O=C(O)c1cc(=O)cc(C(=O)O)[nH]1,86.1% (inactive)
16,NS(=O)(=O)c1cc2c(cc1Cl)NC(C1CC3C=CC1C3)NS2(=O)=O (stereo not drawn),107% (inactive)
17,Oc1[nH]c2ccccc2c1C1=Nc2ccc(Br)cc2/C1=N\OCCN1CCNCC1,86.4% (inactive) and 40.6% (inactive)
18,CN=C(NC#N)Nc1ccc(C2=NNC(=O)CC2C)cc1 (stereo not drawn),106% (inactive)
19,OCC1O[C@H](O)C(Cl)C(O)C1O (stereo partly drawn),100% (inactive)
20,COc1cccc(OC)c1OCCNCC1COc2ccccc2O1 (stereo not drawn),90.6% (inactive)
21,OCCN1CCN(CCCN2c3ccccc3Sc3ccc(C(F)(F)F)cc32)CC1,116% (inactive)
22,O=C(O)CCC(C(=O)O)N1C(=O)c2ccccc2C1=O (stereo not drawn),105% (inactive)
23,Oc1cc2c(cc1O)[C@H]1c3ccccc3CN[C@@H]1CC2,83.3% (inactive)
24,Cc1cn([C@H]2C[C@@H](N=[N+]=[N-])[C@@H](CO)O2)c(=O)[nH]c1=O,91.6% (inactive)
25,CC(C)NC[C@H](O)COc1cccc2ccccc12,94.9% (inactive)

row,SMILES,vessel count % control
1,C[C@H]1OC[C@@H](C[N+](C)(C)C)O1,115% (inactive)
2,CC(C)Cc1ccc(C(C)C(=O)O)cc1 (stereo not drawn),138% (inactive)
3,CN1C(=O)CCS(=O)(=O)C1c1ccc(Cl)cc1 (stereo not drawn),97% (inactive)
4,Cc1ccccc1C(OCCN(C)C)c1ccccc1 (stereo not drawn),108% (inactive)
5,COC1=C(OC)C(=O)c2ccccc2C1=O,115% (inactive)
6,NC(=S)c1ccc[n+]([C@@H]2O[C@@H](COP(=O)([O-])OP(=O)(O)OC[C@H]3O[C@@H](n4cnc5c(N)ncnc54)C(OP(=O)(O)O)[C@H]3O)C(O)C2O)c1 (stereo partly drawn),101% (inactive)
7,CC(C)Oc1cccnc1N(C)C1CCN(Cc2ccccc2)CC1,98.1% (inactive)
8,CC(C)[C@@]1(NC(=O)[C@@H]2C[C@@H]3c4cccc5[nH]cc(c45)C[C@H]3N(C)C2)O[C@@]2(O)[C@@H]3CCCN3C(=O)[C@H](Cc3ccccc3)N2C1=O,118% (inactive)
9,CNCCNS(=O)(=O)c1cccc2cnccc12,140% (inactive)
10,CCCCCCN(CCCCCC)C(=O)Cc1c(-c2ccc(F)cc2)[nH]c2ccccc12,126% (inactive)
11,O=C(O)CCC(=O)N1CCCC1C(=O)O (stereo not drawn),109% (inactive)
12,CCOC(=O)C(C)(C)Oc1ccc(Cl)cc1,55.4% (inactive)
13,CC(=O)OCC1=C(C(=O)[O-])N2C(=O)[C@@H](NC(=O)CCC[C@@H](N)C(=O)[O-])[C@H]2SC1.[Zn+2],106% (inactive)
14,Oc1ccc(C2CNCc3sccc32)cc1O (stereo not drawn),94.7% (inactive)
15,COc1ccc(CCN)cc1O,108% (inactive)
16,COc1ccc(CCNC[C@@H](O)c2ccc(O)cc2)cc1OC,105% (inactive)
17,CN1C2CCC1CC(OC(c1ccccc1)c1ccccc1)C2 (stereo not drawn),91.6% (inactive)
18,CCn1c(=O)c2[nH]c(-c3ccccc3)nc2n(CC)c1=O,63.2% (inactive)
19,CCCCCCCC/C=C\CCCCCCCC(=O)NCCO,102% (inactive)
20,CCC1(c2ccc(N)cc2)CCC(=O)NC1=O (stereo not drawn),98.8% (inactive)
21,c1cnc(N2CCN(Cc3ccc4c(c3)OCO4)CC2)nc1,106% (inactive)
22,COCCOC(=O)C1=C(C)NC(C)=C(C(=O)OC(C)C)C1c1cccc([N+](=O)[O-])c1 (stereo not drawn),95.6% (inactive)
23,CC(C)(CO)Cc1cc(C(C)(C)C)c(O)c(C(C)(C)C)c1,105% (inactive)
